# Test results published in US6174897A, “Bis-(quinolyl)-diamines” (Bayer Aktiengesellschaft, priority 1996, dated 2001).
# Assays:
# [1] = target: apamin binding sites / apamin receptors (bovine cerebral membrane, calf hippocampus); test: Binding of 125I-apamin to bovine cerebral membrane; conditions: 125I-apamin 30 pM, calf hippocampus membranes
# Experimental: 1) Binding of ^125 1I-apamine to Bovine Cerebral Membrane
# Calf brains were obtained from the local abattoir. The hippocampus was prepared on ice and a membrane suspension was made up by homogenization twice in buffer (100 mM Tris-HCl, KCl 5 mM, pH 7.4) and centrifugation at 43,000×g. In a total volume of 500 μl, the incubation mixture contained 200 μg of membrane protein, 30 pM ^125 I-apamin and test substances in the concentration range 1×10^-9 to 1×10^-4 M. The non-specific binding of ^125 I-apamine was determined in the presence of 1×10^-7 M unlabelled apamin.
# After preincubation for 30 min at room temperature (test substances and membrane homogenate), the samples were placed on ice for 10 min before the radioligand was added. The main incubation time was 60 min on ice. When the reaction time had elapsed, an excess of ice-cooled incubation buffer was added to each sample and the mixture was filtered with suction through cellulose acetate/nitrate membrane filters. The amount of bound ^125 I-apamin was measured with a gamma counter.
# [2] = test system: apamin-sensitive potassium channels (PC12 cells); test: Non-radioactive Rb+ efflux assay in PC12 cells; assay type: cell-based
# Experimental: 2) Non-radioactive Rb^+ Efflux Assay for the Identification of Potassium Channel Modulators
# The cellular potassium in PC12 cells is exchanged with rubidium, which is not present in the cells. This exchange is performed by incubating the cells over a period of 4 h in a physiological buffer containing 5.4 mM RbCl without KCl. This rubidium subsequently serves as a tracer for potassium. The cells laden with Rb^+ in this way are washed three times and then stimulated by depolarization with 50 mM KCl to open potassium channels (10 min), causing Rb^+ to flow out of the cells into the supernatant according to the concentration gradient.
# The rubidium contents in the cell supernatant and in the residual cells after they have been lysed with 1% Triton X-100 are then determined by means of atomic absorption spectroscopy. The relative proportion of rubidium in the cell supernatent (=Rb^+ efflux) is used as a measure of the potassium channel activity.
# The effect of substances on the channel activity is measured by co-incubating the test substance over the ten-minute stimulation period and determining its effect on the Rb^+ efflux in the manner described above.
Structure (SMILES),Ki [1],% inhibition of the Rb efflux ([2]; test concentration of 10 μM),% inhibition of the Rb efflux ([2]; at 1 μM)
CCc1cc(NCCCCCNc2cc(CC)nc3ccccc23)c2ccccc2n1 [Example 1],17 nM,77%,–
Cc1cccc2c(NCCCCCNc3cc(C(C)C)nc4c(C)cccc34)cc(C(C)C)nc12 [Example 4],–,75%,68%
CCCc1cc(NCCCCCNc2cc(CCC)nc3ccccc23)c2ccccc2n1 [Example 2],13 nM,–,–
